Measured values from ChEMBL document CHEMBL3813667, “Triterpene sapogenin-polyarginine conjugates exhibit promising antibacterial activity against Gram-positive strains” (Bioorg Med Chem, 2016).
Converted amounts (≈) assume the structure as drawn. Where a SMILES comes first, the peptide text is derived from it.

How the values were obtained:
Staphylococcus aureus = test: Antibacterial activity against Staphylococcus aureus ATCC 25923 after 16 hrs by broth microdilution method; assay type: functional; details: ATCC 25923, 16 h
Bacillus spizizenii = test: Antibacterial activity against Bacillus subtilis ATCC 6633 after 16 hrs by broth microdilution method; assay type: functional; details: ATCC 6633, 16 h
Escherichia coli = test: Antibacterial activity against Escherichia coli ATCC 25922 after 16 hrs by broth microdilution method; assay type: functional; details: ATCC 25922, 16 h
[1] = Toxicity against human erythrocytes assessed as hemolysis after 1 hr by spectrophotometric analysis; assay type: cell-based, Erythrocyte
[2] = Therapeutic index, ratio of HC50 for human erythrocytes to MIC for Staphylococcus aureus ATCC 25923; details: read-out: TI
[3] = Therapeutic index, ratio of HC50 for human erythrocytes to MIC for Bacillus subtilis ATCC 6633; details: read-out: TI
[4] = Solubility of the compound in water at 40 mg sonicated for 15 mins at 25 degC measured after 5 hrs; assay type: physicochemical

MIC (Staphylococcus aureus) [µM] | MIC (Bacillus spizizenii) [µM] | MIC (Escherichia coli) [µM] | solubility at 5 h [4] [mg/mL] | Compound | HC50 at 1 h [1] [µM] | selectivity ratio [2] | selectivity ratio [3]
7 (≈ 7.75 µg/mL) | 3.5 (≈ 3.87 µg/mL) | > 113 |  | C[C@H]1[C@H](C)CCC2(C(=O)O)CC[C@]3(C)C(=CC[C@@H]4[C@@]5(C)CC[C@H](OC(=O)CCc6cn(CC(=O)N[C@@H](CCCNC(=N)N)C(=O)N[C@@H](CCCNC(=N)N)C(=O)N[C@@H](CCCNC(=N)N)C(=O)O)nn6)C(C)(C)[C@@H]5CC[C@]43C)[C@H]12 (single isomer, unassigned) | 360 | 51 | 102
> 157 | 19.6 (≈ 15.6 µg/mL) | > 157 |  | C=C(C)[C@@H]1CC[C@]2(C(=O)O)CC[C@]3(C)[C@H](CC[C@@H]4[C@@]5(C)CC[C@H](OC(=O)CCc6cn(CC(=O)N[C@@H](CCCNC(=N)N)C(=O)O)nn6)C(C)(C)[C@@H]5CC[C@]43C)[C@@H]12 | > 1010 |  | > 51
4.2 (≈ 7.75 µg/mL) | 4.2 (≈ 7.75 µg/mL) | > 68 |  | C=C(C)[C@@H]1CC[C@]2(C(=O)OCc3cn(CC(=O)N[C@@H](CCCNC(=N)N)C(=O)N[C@@H](CCCNC(=N)N)C(=O)N[C@@H](CCCNC(=N)N)C(=O)N[C@@H](CCCNC(=N)N)C(=O)N[C@@H](CCCNC(=N)N)C(=O)N[C@@H](CCCNC(=N)N)C(=O)N[C@@H](CCCNC(=N)N)C(=O)N[C@@H](CCCNC(=N)N)C(=O)O)nn3)CC[C@]3(C)[C@H](CC[C@@H]4[C@@]5(C)CC[C@H](O)C(C)(C)[C@@H]5CC[C@]43C)[C@@H]12 |  |  | 
137 (≈ 62.6 µg/mL) | 68 (≈ 31.1 µg/mL) | > 1100 |  | C[C@H]1[C@H](C)CC[C@]2(C(=O)O)CC[C@]3(C)C(=CC[C@@H]4[C@@]5(C)CC[C@H](O)C(C)(C)[C@@H]5CC[C@]43C)[C@H]12 [URSOLIC ACID] |  |  | 
4.1 (≈ 7.74 µg/mL) | 4.1 (≈ 7.74 µg/mL) | > 66 |  | C[C@H]1[C@H](C)CCC2(C(=O)O)CC[C@]3(C)C(=CC[C@@H]4[C@@]5(C)CC[C@H](OC(=O)CCc6cn(CC(=O)N[C@@H](CCCNC(=N)N)C(=O)N[C@@H](CCCNC(=N)N)C(=O)N[C@@H](CCCNC(=N)N)C(=O)N[C@@H](CCCNC(=N)N)C(=O)N[C@@H](CCCNC(=N)N)C(=O)N[C@@H](CCCNC(=N)N)C(=O)N[C@@H](CCCNC(=N)N)C(=O)N[C@@H](CCCNC(=N)N)C(=O)O)nn6)C(C)(C)[C@@H]5CC[C@]43C)[C@H]12 (single isomer, unassigned) | > 424 | > 103 | > 103
24.6 (≈ 31.2 µg/mL) | 12.3 (≈ 15.6 µg/mL) | 197 (≈ 250 µg/mL) |  | N=C(N)NCCC[C@H](NC(=O)[C@H](CCCNC(=N)N)NC(=O)[C@H](CCCNC(=N)N)NC(=O)[C@H](CCCNC(=N)N)NC(=O)[C@H](CCCNC(=N)N)NC(=O)[C@H](CCCNC(=N)N)NC(=O)[C@H](CCCNC(=N)N)NC(=O)[C@@H](N)CCCNC(=N)N)C(=O)O |  |  | 
2.7 (≈ 3.83 µg/mL) | 2.7 (≈ 3.83 µg/mL) | > 88 |  | C=C(C)[C@@H]1CC[C@]2(C(=O)O)CC[C@]3(C)[C@H](CC[C@@H]4[C@@]5(C)CC[C@H](OC(=O)CCc6cn(CC(=O)N[C@@H](CCCNC(=N)N)C(=O)N[C@@H](CCCNC(=N)N)C(=O)N[C@@H](CCCNC(=N)N)C(=O)N[C@@H](CCCNC(=N)N)C(=O)N[C@@H](CCCNC(=N)N)C(=O)O)nn6)C(C)(C)[C@@H]5CC[C@]43C)[C@@H]12 | 323 | 117 | 117
5.5 (≈ 7.8 µg/mL) | 2.7 (≈ 3.83 µg/mL) | > 88 |  | C[C@H]1[C@H](C)CCC2(C(=O)O)CC[C@]3(C)C(=CC[C@@H]4[C@@]5(C)CC[C@H](OC(=O)CCc6cn(CC(=O)N[C@@H](CCCNC(=N)N)C(=O)N[C@@H](CCCNC(=N)N)C(=O)N[C@@H](CCCNC(=N)N)C(=O)N[C@@H](CCCNC(=N)N)C(=O)N[C@@H](CCCNC(=N)N)C(=O)O)nn6)C(C)(C)[C@@H]5CC[C@]43C)[C@H]12 (single isomer, unassigned) |  |  | 
5.7 (≈ 7.85 µg/mL) | 2.8 (≈ 3.85 µg/mL) | > 91 |  | C[C@H]1[C@H](C)CC[C@]2(C(=O)OCc3cn(CC(=O)N[C@@H](CCCNC(=N)N)C(=O)N[C@@H](CCCNC(=N)N)C(=O)N[C@@H](CCCNC(=N)N)C(=O)N[C@@H](CCCNC(=N)N)C(=O)N[C@@H](CCCNC(=N)N)C(=O)O)nn3)CC[C@]3(C)C(=CC[C@@H]4[C@@]5(C)CC[C@H](O)C(C)(C)[C@@H]5CC[C@]43C)[C@H]12 | 25 | 6 | 11
8.6 (≈ 7.81 µg/mL) | 4.3 (≈ 3.91 µg/mL) | > 138 | 48 (≈ 52.9 mM) | C=C(C)[C@@H]1CC[C@]2(C(=O)OCc3cn(CC(=O)N[C@@H](CCCNC(=N)N)C(=O)N[C@@H](CCCNC(=N)N)C(=O)O)nn3)CC[C@]3(C)[C@H](CC[C@@H]4[C@@]5(C)CC[C@H](O)C(C)(C)[C@@H]5CC[C@]43C)[C@@H]12 |  |  | 
10.4 (≈ 7.82 µg/mL) | 5.2 (≈ 3.91 µg/mL) | > 166 |  | C[C@H]1[C@H](C)CC[C@]2(C(=O)OCc3cn(CC(=O)N[C@@H](CCCNC(=N)N)C(=O)O)nn3)CC[C@]3(C)C(=CC[C@@H]4[C@@]5(C)CC[C@H](O)C(C)(C)[C@@H]5CC[C@]43C)[C@H]12 | 83 | 8 | 16
> 166 | 83 (≈ 62.4 µg/mL) | > 166 | 1.3 (≈ 1.73 mM) | C=C(C)[C@@H]1CC[C@]2(C(=O)OCc3cn(CC(=O)N[C@@H](CCCNC(=N)N)C(=O)O)nn3)CC[C@]3(C)[C@H](CC[C@@H]4[C@@]5(C)CC[C@H](O)C(C)(C)[C@@H]5CC[C@]43C)[C@@H]12 | 397 |  | 5
8.2 (≈ 7.79 µg/mL) | 4.1 (≈ 3.9 µg/mL) | > 131 |  | C=C(C)[C@@H]1CC[C@]2(C(=O)O)CC[C@]3(C)[C@H](CC[C@@H]4[C@@]5(C)CC[C@H](OC(=O)CCc6cn(CC(=O)N[C@@H](CCCNC(=N)N)C(=O)N[C@@H](CCCNC(=N)N)C(=O)O)nn6)C(C)(C)[C@@H]5CC[C@]43C)[C@@H]12 | > 841 | > 103 | > 205
4.3 (≈ 3.91 µg/mL) | 4.3 (≈ 3.91 µg/mL) | > 138 |  | C[C@H]1[C@H](C)CC[C@]2(C(=O)OCc3cn(CC(=O)N[C@@H](CCCNC(=N)N)C(=O)N[C@@H](CCCNC(=N)N)C(=O)O)nn3)CC[C@]3(C)C(=CC[C@@H]4[C@@]5(C)CC[C@H](O)C(C)(C)[C@@H]5CC[C@]43C)[C@H]12 | 49 | 11 | 11
> 1520 | > 1520 | > 1520 |  | NC(N)=NCCC[C@H](NC(=O)[C@@H](N)CCCN=C(N)N)C(=O)O (H-Arg-Arg-OH) |  |  | 
78.6 (≈ 62.4 µg/mL) | 19.6 (≈ 15.6 µg/mL) | > 157 |  | C[C@H]1[C@H](C)CC[C@]2(C(=O)O)CC[C@]3(C)C(=CC[C@@H]4[C@@]5(C)CC[C@H](OC(=O)CCc6cn(CC(=O)N[C@@H](CCCNC(=N)N)C(=O)O)nn6)C(C)(C)[C@@H]5CC[C@]43C)[C@H]12 | 158 | 2 | 8
> 627 | 313 | > 627 |  | H-RRRRR-OH |  |  | 
8.2 (≈ 7.79 µg/mL) | 4.1 (≈ 3.9 µg/mL) | > 131 |  | C[C@H]1[C@H](C)CC[C@]2(C(=O)O)CC[C@]3(C)C(=CC[C@@H]4[C@@]5(C)CC[C@H](OC(=O)CCc6cn(CC(=O)N[C@@H](CCCNC(=N)N)C(=O)N[C@@H](CCCNC(=N)N)C(=O)O)nn6)C(C)(C)[C@@H]5CC[C@]43C)[C@H]12 |  |  | 
4.1 (≈ 7.74 µg/mL) | 4.1 (≈ 7.74 µg/mL) | > 66 |  | C=C(C)[C@@H]1CC[C@]2(C(=O)O)CC[C@]3(C)[C@H](CC[C@@H]4[C@@]5(C)CC[C@H](OC(=O)CCc6cn(CC(=O)N[C@@H](CCCNC(=N)N)C(=O)N[C@@H](CCCNC(=N)N)C(=O)N[C@@H](CCCNC(=N)N)C(=O)N[C@@H](CCCNC(=N)N)C(=O)N[C@@H](CCCNC(=N)N)C(=O)N[C@@H](CCCNC(=N)N)C(=O)N[C@@H](CCCNC(=N)N)C(=O)N[C@@H](CCCNC(=N)N)C(=O)O)nn6)C(C)(C)[C@@H]5CC[C@]43C)[C@@H]12 | > 424 | > 103 | > 103
4.2 (≈ 7.75 µg/mL) | 4.2 (≈ 7.75 µg/mL) | > 68 |  | C[C@H]1[C@H](C)CC[C@]2(C(=O)OCc3cn(CC(=O)N[C@@H](CCCNC(=N)N)C(=O)N[C@@H](CCCNC(=N)N)C(=O)N[C@@H](CCCNC(=N)N)C(=O)N[C@@H](CCCNC(=N)N)C(=O)N[C@@H](CCCNC(=N)N)C(=O)N[C@@H](CCCNC(=N)N)C(=O)N[C@@H](CCCNC(=N)N)C(=O)N[C@@H](CCCNC(=N)N)C(=O)O)nn3)CC[C@]3(C)C(=CC[C@@H]4[C@@]5(C)CC[C@H](O)C(C)(C)[C@@H]5CC[C@]43C)[C@H]12 | 41 | 10 | 10
3.7 (≈ 3.94 µg/mL) | 3.7 (≈ 3.94 µg/mL) | 14.7 (≈ 15.6 µg/mL) |  | C[C@H]1[C@H](C)CC[C@]2(C(=O)OCc3cn(CC(=O)N[C@@H](CCCNC(=N)N)C(=O)N[C@@H](CCCNC(=N)N)C(=O)N[C@@H](CCCNC(=N)N)C(=O)O)nn3)CC[C@]3(C)C(=CC[C@@H]4[C@@]5(C)CC[C@H](O)C(C)(C)[C@@H]5CC[C@]43C)[C@H]12 | 29 | 8 | 8
> 1030 | > 1030 | > 1300 |  | N=C(N)NCCC[C@H](NC(=O)[C@H](CCCNC(=N)N)NC(=O)[C@@H](N)CCCNC(=N)N)C(=O)O (H-Arg-Arg-Arg-OH) |  |  | 

Compound | MIC (Staphylococcus aureus) [µM] | MIC (Bacillus spizizenii) [µM] | MIC (Escherichia coli) [µM] | solubility at 5 h [4] [mg/mL] | HC50 at 1 h [1] [µM] | selectivity ratio [2] | selectivity ratio [3]
N=C(N)NCCC[C@H](N)C(=O)O [ARGININE] | > 2890 | > 2890 | > 2890 |  |  |  | 
